Measurements taken from PubChem BioAssay AID328 (DTP/NCI, 2004).
“And” between values parts separate entries of the source, which are not always exact repeats. Equal values may be shown once. Toxic doses and inconclusive results are not listed.

Tested on: BDF1 mice, P388 leukemia ip, median survival T/C
Test: NCI In Vivo Anticancer Drug Screen. Data for tumor model P388 Leukemia (intraperitoneal) in B6D2F1 (BDF1) mice
Conditions: endpoint: median survival time, higher = longer survival
Procedure, shortened: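 Each value expresses how treatment altered survival: treated-mouse outcome over vehicle-mouse outcome, both groups bearing the transplanted tumour.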

[1] = dose: 50.0 mg/kg/injection, schedule: Q01DX009 (ip), vehicle: saline with Tween-80
[2] = dose: 50.0 mg/kg/injection, schedule: Q04DX003 (ip), vehicle: saline with Tween-80
[3] = dose: 100.0 mg/kg/injection, schedule: Q01DX009 (ip), vehicle: saline with Tween-80
[4] = dose: 100.0 mg/kg/injection, schedule: Q04DX003 (ip), vehicle: saline with Tween-80
[5] = dose: 1.0 mg/kg/injection, schedule: Q01DX009 (ip), vehicle: saline + alcohol
[6] = dose: 2.0 mg/kg/injection, schedule: Q01DX009 (ip), vehicle: saline + alcohol
[7] = dose: 4.0 mg/kg/injection, schedule: Q01DX009 (ip), vehicle: saline + alcohol
[8] = dose: 200.0 mg/kg/injection, schedule: Q01DX009 (ip), vehicle: saline with Tween-80
[9] = dose: 200.0 mg/kg/injection, schedule: Q04DX003 (ip), vehicle: saline with Tween-80
[10] = dose: 400.0 mg/kg/injection, schedule: Q01DX009 (ip), vehicle: saline with Tween-80

Structure (SMILES): [Cl][Pt+2]([Cl])([Cl])[Cl].c1ccc(C2CC[N-]CC2)cc1.c1ccc(C2CC[N-]CC2)cc1
- T/C (dose: 25.0 mg/kg/injection, schedule: Q01DX009 (ip), vehicle: Klucel (hydroxypropylcellulose) (HPC)): 121 % of control
- T/C (dose: 25.0 mg/kg/injection, schedule: Q01DX009 (ip), vehicle: water): 103 % of control and 122 % of control
- T/C (dose: 50.0 mg/kg/injection, schedule: Q01DX009 (ip), vehicle: Klucel (hydroxypropylcellulose) (HPC)): 112 % of control
- T/C (dose: 50.0 mg/kg/injection, schedule: Q01DX009 (ip), vehicle: water): 112 % of control
- T/C (dose: 50.0 mg/kg/injection, schedule: Q04DX003 (ip), vehicle: water): 109 % of control
- T/C (dose: 100.0 mg/kg/injection, schedule: Q01DX009 (ip), vehicle: Klucel (hydroxypropylcellulose) (HPC)): 121 % of control
- T/C (dose: 100.0 mg/kg/injection, schedule: Q01DX009 (ip), vehicle: water): 90 % of control
- T/C (dose: 100.0 mg/kg/injection, schedule: Q04DX003 (ip), vehicle: water): 105 % of control
- T/C (dose: 200.0 mg/kg/injection, schedule: Q04DX003 (ip), vehicle: water): 98 % of control
- T/C (dose: 400.0 mg/kg/injection, schedule: Q04DX003 (ip), vehicle: water): 89 % of control

Structure (SMILES): c1ccc2c(NCCCCCCCCNc3c4ccccc4nc4ccccc34)c3ccccc3nc2c1
- T/C (dose: 2.5 mg/kg/injection, schedule: Q01DX009 (ip), vehicle: Klucel (hydroxypropylcellulose) (HPC)): 112 % of control
- T/C (dose: 20.0 mg/kg/injection, schedule: Q01DX009 (ip), vehicle: Klucel (hydroxypropylcellulose) (HPC)): 100 % of control

Structure (SMILES): O=C1C=CCCCC1
- T/C (dose: 25.0 mg/kg/injection, schedule: Q01DX009 (ip), vehicle: saline with Tween-80): 109 % of control
- T/C (dose: 25.0 mg/kg/injection, schedule: Q04DX003 (ip), vehicle: saline with Tween-80): 103 % of control
- T/C [1]: 109 % of control and 112 % of control
- T/C [2]: 88 % of control
- T/C [3]: 104 % of control
- T/C [4]: 100 % of control

Structure (SMILES): CCCCNC1=CC(=O)CC(C)(C)C1
- T/C (dose: 50.0 mg/kg/injection, schedule: Q01DX009 (ip), vehicle: saline): 105 % of control
- T/C (dose: 100.0 mg/kg/injection, schedule: Q01DX009 (ip), vehicle: saline): 111 % of control
- T/C (dose: 200.0 mg/kg/injection, schedule: Q01DX009 (ip), vehicle: saline): 107 % of control

Structure (SMILES): CCC(C)C(=O)O[C@H]1C(=O)O[C@@H]2C[C@H]3C(C)=CC(=O)[C@@H](O)[C@]3(C)[C@H]3[C@@H](O)[C@H](O)[C@@]4(C)OC[C@]32[C@@H]14 (some centres not stated)
- T/C (dose: 0.06 mg/kg/injection, schedule: Q01DX009 (ip), vehicle: saline + alcohol): 115 % of control
- T/C (dose: 0.75 mg/kg/injection, schedule: Q01DX009 (ip), vehicle: saline + alcohol): 159 % of control
- T/C [5]: 198 % of control
- T/C (dose: 1.5 mg/kg/injection, schedule: Q01DX009 (ip), vehicle: saline + alcohol): 154 % of control
- T/C [6]: 155 % of control
- T/C (dose: 3.0 mg/kg/injection, schedule: Q01DX009 (ip), vehicle: saline + alcohol): 104 % of control
- T/C [7]: 180 % of control

Structure (SMILES): c1ccc2cc3c(cc2c1)Nc1cc2ccccc2cc1N3
- T/C [3]: 96 % of control
- T/C [4]: 100 % of control
- T/C [8]: 103 % of control
- T/C [9]: 100 % of control
- T/C [10]: 100 % of control
- T/C (dose: 400.0 mg/kg/injection, schedule: Q04DX003 (ip), vehicle: saline with Tween-80): 108 % of control

Structure (SMILES): N#CCCN(CCC#N)/N=N\c1nc[nH]c1C(N)=O
- T/C [1]: 101 % of control
- T/C [3]: 105 % of control
- T/C [8]: 113 % of control
- T/C [10]: 113 % of control

Structure (SMILES): O=C(O)Cc1c[nH]c2cccc(Cl)c12
- T/C [1]: 93 % of control
- T/C [3]: 98 % of control
- T/C [8]: 100 % of control

Structure (SMILES): Cc1cccc(NC(=O)C2CCC(C)(C(=O)O)C2(C)C)c1 (configuration not stated)
- T/C [2]: 100 % of control
- T/C [4]: 95 % of control
- T/C [9]: 104 % of control

Structure (SMILES): COc1cc2c(c(OC)c1OC)-c1cc3c(cc1[C@@H](OC(C)=O)[C@@H]1COC(=O)[C@H]1C2)OCO3
- T/C [5]: 118 % of control
- T/C (dose: 1.3 mg/kg/injection, schedule: Q01DX009 (ip), vehicle: saline): 100 % of control
- T/C (dose: 1.77 mg/kg/injection, schedule: Q01DX009 (ip), vehicle: saline): 100 % of control
- T/C [6]: 118 % of control
- T/C (dose: 2.0 mg/kg/injection, schedule: Q01DX009 (ip), vehicle: saline): 100 % of control
- T/C (dose: 2.66 mg/kg/injection, schedule: Q01DX009 (ip), vehicle: saline): 90 % of control
- T/C (dose: 3.0 mg/kg/injection, schedule: Q01DX009 (ip), vehicle: saline): 104 % of control
- T/C [7]: 118 % of control
- T/C (dose: 4.0 mg/kg/injection, schedule: Q01DX009 (ip), vehicle: saline): 90 % of control
- T/C (dose: 6.0 mg/kg/injection, schedule: Q01DX009 (ip), vehicle: saline): 100 % of control
- T/C (dose: 6.22 mg/kg/injection, schedule: Q01DX009 (ip), vehicle: saline + alcohol): 116 % of control
- T/C (dose: 8.0 mg/kg/injection, schedule: Q01DX009 (ip), vehicle: saline + alcohol): 113 % of control
- T/C (dose: 8.9 mg/kg/injection, schedule: Q01DX009 (ip), vehicle: saline): 104 % of control
- T/C (dose: 9.33 mg/kg/injection, schedule: Q01DX009 (ip), vehicle: saline + alcohol): 112 % of control
- T/C (dose: 12.0 mg/kg/injection, schedule: Q01DX009 (ip), vehicle: saline): 115 % of control
- T/C (dose: 13.3 mg/kg/injection, schedule: Q01DX009 (ip), vehicle: saline): 113 % of control
- T/C (dose: 14.0 mg/kg/injection, schedule: Q01DX009 (ip), vehicle: saline + alcohol): 120 % of control
- T/C (dose: 18.0 mg/kg/injection, schedule: Q01DX009 (ip), vehicle: saline): 100 % of control
- T/C (dose: 20.0 mg/kg/injection, schedule: Q01DX009 (ip), vehicle: saline): 109 % of control
- T/C (dose: 21.0 mg/kg/injection, schedule: Q01DX009 (ip), vehicle: saline + alcohol): 91 % of control

Structure (SMILES): O=C1C=C2C(=CCOC2O)O1 (configuration not stated)
- T/C (dose: 0.01 mg/kg/injection, schedule: Q01DX009 (ip), vehicle: other): 104 % of control
- T/C (dose: 0.03 mg/kg/injection, schedule: Q01DX009 (ip), vehicle: other): 111 % of control
- T/C (dose: 0.1 mg/kg/injection, schedule: Q01DX009 (ip), vehicle: other): 104 % of control
- T/C (dose: 3.0 mg/kg/injection, schedule: Q01DX009 (ip), vehicle: other): 158 % of control

Structure (SMILES): Nc1ncnc2c1c(C(=O)O)cn2C1OC(CO)C(O)C1O (configuration not stated)
- T/C (dose: 66.0 mg/kg/injection, schedule: Q04DX003 (ip), vehicle: saline with Tween-80): 160 % of control
- T/C [4]: 150 % of control and 170 % of control

Structure (SMILES): Nc1ccc(N2N=C(N3CCCC3)CC2=O)cc1
- T/C (dose: 50.0 mg/kg/injection, schedule: Q01DX005 (ip), vehicle: saline with Tween-80): 89 % of control
- T/C (dose: 100.0 mg/kg/injection, schedule: Q01DX005 (ip), vehicle: saline with Tween-80): 89 % of control
- T/C (dose: 200.0 mg/kg/injection, schedule: Q01DX005 (ip), vehicle: saline with Tween-80): 103 % of control

Structure (SMILES): Cc1ccc(NS(=O)(=O)c2ccc(F)cc2)cc1C
- T/C (dose: 100.0 mg/kg/injection, schedule: Q04DX003 (ip), vehicle: Klucel (hydroxypropylcellulose) (HPC)): 109 % of control
- T/C (dose: 200.0 mg/kg/injection, schedule: Q04DX003 (ip), vehicle: Klucel (hydroxypropylcellulose) (HPC)): 109 % of control
- T/C (dose: 400.0 mg/kg/injection, schedule: Q04DX003 (ip), vehicle: Klucel (hydroxypropylcellulose) (HPC)): 104 % of control

Structure (SMILES): COC1=C(C)C(=O)C2=C(C1=O)C1C3CC4=C(C(=O)C(OC)=C(C)C4=O)C(CNC(=O)C(C)=O)N3C(C#N)C(C2)N1C (configuration not stated)
- T/C (dose: 0.31 mg/kg/injection, schedule: Q01DX009 (ip), vehicle: Klucel (hydroxypropylcellulose) (HPC)): 151 % of control
- T/C (dose: 0.62 mg/kg/injection, schedule: Q01DX009 (ip), vehicle: Klucel (hydroxypropylcellulose) (HPC)): 183 % of control
- T/C (dose: 1.25 mg/kg/injection, schedule: Q01DX009 (ip), vehicle: Klucel (hydroxypropylcellulose) (HPC)): 159 % of control

Structure (SMILES): CC1C=CC(C(N)C(=O)O)O1 (configuration not stated)
- T/C (dose: 100.0 mg/kg/injection, schedule: Q04DX003 (ip), vehicle: saline): 100 % of control
- T/C (dose: 200.0 mg/kg/injection, schedule: Q04DX003 (ip), vehicle: saline): 100 % of control
- T/C (dose: 400.0 mg/kg/injection, schedule: Q04DX003 (ip), vehicle: saline): 95 % of control and 100 % of control
